Consider two molecules from ChEMBL document CHEMBL5463722, “Data for DCP probe BI-5524” (2023).

What is called IC50 is the concentration that gives 50% inhibition.

Each structure is given as a SMILES string.

The target of data set [1] is Cannabinoid receptor 1 (Homo sapiens) (UniProt P21554). The data set is described as follows: CB1 Eurofins-Cerep binding assay. The settings on record: Compound concentration 10.0 uM.
Data set [2] concerns the target Alpha-1A adrenergic receptor (Homo sapiens) (UniProt P35348). In words: Agonist activity in the Eurofins Cerep SafetyScreen44 (BI) against ALPHA1AH_ANTAG by Scintillation counting (Cerep_2338). The note with it: Compound concentration 10.0 uM.
Data set [3] deals with Alpha-2A adrenergic receptor (Homo sapiens) (UniProt P08913). In words: Inhibitor of ALPHA2A/HU in the Eurofins Cerep SafetyScreen44 (BI) by Radioactive Assay (Cerep_13). The note with it: Compound concentration 10.0 uM.
The target in data set [4] is L-type calcium channel (Cav1.2, alpha-1C), dihydropyridine site (Rattus norvegicus, UniProt P22002). In words: Inhibitor of CA+/DHPSI/R in the Eurofins Cerep SafetyScreen44 (BI) by Radioactive Assay (Cerep_161). It counts as protein assay. The arrangement: scale not given: the % may be the effect or the level left. The note with it: rat brain, probe [3H](+)PN200-110, compound concentration 10 uM, read-out: % Ctrl.

Data set [5] deals with hERG (KCNH2) (Homo sapiens, UniProt Q12809). In words: Inhibitor of HERG_DOFETILIDE in the Eurofins Cerep SafetyScreen44 (BI) by Scintillation counting (Cerep_4094). The arrangement: scale not given: the % may be the effect or the level left. The note with it: probe [3H]dofetilide, compound concentration 10 uM, read-out: % Ctrl.
In data set [6] the target is Tyrosine-protein kinase Lck (Homo sapiens) (UniProt P06239). The data set is described as follows: Inhibitor of LCK_CE in the Eurofins Cerep SafetyScreen44 (BI) by lanthanide chelation excitation (Cerep_2906). The settings on record: Compound concentration 10.0 uM.
In data set [7] the target is T1, Glutamate NMDA receptor (Rattus norvegicus) (UniProt P35439+Q00959+Q00960+Q00961+Q62645+Q8VHN2+Q9R1M7). The data set is described as follows: Inhibitor of NMDA/R in the Eurofins Cerep SafetyScreen44 (BI) by Radioactive Assay (Cerep_66). It counts as protein-complex assay. The settings on record: Compound concentration 10.0 uM.
The species named for data set [8] is Homo sapiens. In words: Agonist activity in the Eurofins Cerep SafetyScreen44 (BI) against N_NEURO_A4B2 by Radioligand Binding (Cerep_3029). The note with it: Compound concentration 10.0 uM. The format is protein-complex assay.
Data set [9] deals with Androgen receptor (Homo sapiens) (UniProt P10275). The settings on record: Compound concentration 10.0 uM.
Description: Activity against ANDROGEN/H in the Eurofins Cerep SafetyScreen44 (BI) by Radioactive Assay (Cerep_933)
For data set [10], the target named is Myeloblastin (Homo sapiens, UniProt P24158). In words: PRTN3 inhibition assay.
Data set [11] has as its target Cathepsin G (Homo sapiens, UniProt P08311). In words: CTSG inhibition assay.
Data set [12] addresses 5-hydroxytryptamine receptor 6 (Homo sapiens) (UniProt P50406). The data set is described as follows: Activity against 5HT6/H in the Eurofins SafetyScreen44 (BI) by Others (Old_Cerep_3). The settings on record: Compound concentration 10.0 uM.
Data set [13] concerns the target 5-hydroxytryptamine receptor 7 (Homo sapiens) (UniProt P34969). The data set is described as follows: 5-HT7 Eurofins-Cerep binding assay. The arrangement: ligand concentration 4 nM. The note with it: Compound concentration 10.0 uM.
Data set [14] has as its target Type-1 angiotensin II receptor (Homo sapiens) (UniProt P30556). The data set is described as follows: AT1 Eurofins-Cerep binding assay.
Data set [15] has as its target Muscarinic acetylcholine receptor M4 (Homo sapiens) (UniProt P08173). The data set is described as follows: M4 Eurofins-Cerep binding assay. The note with it: Compound concentration 10.0 uM.
The target in data set [16] is Melanocortin receptor 4 (Homo sapiens) (UniProt P32245). The data set is described as follows: MC4 Eurofins-Cerep binding assay. The arrangement: ligand concentration 0.05 nM. The settings on record: Compound concentration 10.0 uM.
Data set [17] concerns the target Melatonin receptor type 1A (Homo sapiens) (UniProt P48039). The data set is described as follows: MT1 (ML1A) Eurofins-Cerep binding assay. Also on record: ligand concentration 0.01 nM. The note with it: Compound concentration 10.0 uM.
The target in data set [18] is Neuromedin-K receptor (Homo sapiens) (UniProt P29371). The data set is described as follows: Agonist activity in the Eurofins SafetyScreen44 (BI) against NK3/H by Radioligand Binding (Old_Cerep_26). The settings on record: Compound concentration 10.0 uM.
Data set [19] concerns the target Nociceptin receptor (Homo sapiens) (UniProt P41146). The data set is described as follows: Activity against ORL1/H in the Eurofins SafetyScreen44 (BI) by Radioactive Assay (Old_Cerep_28). The settings on record: Compound concentration 10.0 uM.
The target in data set [20] is P2Y purinoceptor 1 (Rattus norvegicus) (UniProt P49651). In words: Activity against P2Y/RA in the Eurofins SafetyScreen44 (BI) by Radioactive Assay (Old_Cerep_30). The note with it: Compound concentration 10.0 uM.
For data set [21], the target named is T1, Glutamate NMDA receptor (Rattus norvegicus). In words: PCP Eurofins-Cerep binding assay. The format is protein-complex assay. The note with it: Compound concentration 10.0 uM.
For data set [22], the target named is Prostacyclin receptor (Homo sapiens) (UniProt P43119). In words: Activity against PGI2/H in the Eurofins SafetyScreen44 (BI) by Radioactive Assay (Old_Cerep_34). The note with it: Compound concentration 10.0 uM.
The target in data set [23] is Peroxisome proliferator-activated receptor gamma (Homo sapiens) (UniProt P37231). In words: Agonist activity in the Eurofins SafetyScreen44 (BI) against PPARG/H AG by Radioactive Assay (Old_Cerep_35). The note with it: Compound concentration 10.0 uM.
For data set [24], the target named is Tumor necrosis factor receptor superfamily member 1A (Homo sapiens) (UniProt P19438). In words: TNF-alpha Eurofins-Cerep binding assay. The note with it: Compound concentration 10.0 uM.
For data set [25], the species on record is Rattus norvegicus. The data set is described as follows: BZD (central) Eurofins-Cerep binding assay. The settings on record: Compound concentration 10.0 uM.
For data set [26], the target named is Neuropeptide Y receptor type 2 (Homo sapiens) (UniProt P49146). In words: Y2 Eurofins-Cerep binding assay. The settings on record: Compound concentration 10.0 uM. Also on record: ligand concentration 0.015 nM.
Data set [27] deals with 5-hydroxytryptamine receptor 1B (Rattus norvegicus) (UniProt P28564). The data set is described as follows: Inhibitor of 5HT1B/R in the Eurofins SafetyScreen44 (BI) by Radioactive Assay (Old_Cerep_1). The settings on record: Compound concentration 10.0 uM.
The target of data set [28] is 5-hydroxytryptamine receptor 2C (Homo sapiens) (UniProt P28335). In words: Activity against 5HT2C/H in the Eurofins SafetyScreen44 (BI) (Cerep_1003). The settings on record: Compound concentration 10.0 uM.
The target of data set [29] is T2, GABA-A receptor; anion channel (Rattus norvegicus) (UniProt O09028+P15431+P18506+P18508+P19969+P20236+P23574+P23576+P28471+P28473+P30191+P62813+P63079+P63138+Q91ZM7+Q9ES14). In words: Activity against BZD/PERIPH/R in the Eurofins SafetyScreen44 (BI) by Radioactive Assay (Old_Cerep_10). It counts as protein-complex assay.
The target in data set [30] is Calcitonin-gene-related peptide receptor, CALCRL/RAMP1 (Homo sapiens) (UniProt O60894+Q16602). In words: Agonist activity in the Eurofins SafetyScreen44 (BI) against CGRP/H by Scintillation counting (Old_Cerep_15). It counts as protein-complex assay.
In data set [31] the target is D(1B) dopamine receptor (Homo sapiens) (UniProt P21918). The data set is described as follows: Activity against D5/H in the Eurofins SafetyScreen44 (BI) by Radioactive Assay (Old_Cerep_17). The note with it: Compound concentration 10.0 uM.
In data set [32] the target is Prostaglandin E2 receptor EP4 subtype (Homo sapiens) (UniProt P35408). In words: Agonist activity in the Eurofins SafetyScreen44 (BI) against EP4/H AG by Radioactive Assay (Old_Cerep_19). The settings on record: Compound concentration 10.0 uM.
Data set [33] has as its target T2, GABA-A receptor; anion channel (Rattus norvegicus). The data set is described as follows: Inhibitor of GABA/NS/R in the Eurofins SafetyScreen44 (BI) by Radioactive Assay (Cerep_60). The note with it: Compound concentration 10.0 uM. It counts as protein-complex assay.
The target in data set [34] is C-X-C chemokine receptor type 2 (Homo sapiens) (UniProt P25025). In words: CXCR2 (IL-8B) Eurofins-Cerep binding assay. The settings on record: Compound concentration 10.0 uM.
C-X-C chemokine receptor type 2 (Homo sapiens), sequence (P25025 whole entry): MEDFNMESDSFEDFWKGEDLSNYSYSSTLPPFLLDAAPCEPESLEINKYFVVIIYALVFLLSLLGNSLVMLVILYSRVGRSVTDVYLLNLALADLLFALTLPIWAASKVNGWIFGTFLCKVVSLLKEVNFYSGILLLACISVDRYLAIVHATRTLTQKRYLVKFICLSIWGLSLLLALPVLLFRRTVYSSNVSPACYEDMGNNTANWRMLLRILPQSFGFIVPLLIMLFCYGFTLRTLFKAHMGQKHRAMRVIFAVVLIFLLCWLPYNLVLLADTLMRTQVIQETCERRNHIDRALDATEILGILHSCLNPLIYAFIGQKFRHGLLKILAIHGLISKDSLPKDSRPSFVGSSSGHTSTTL

Type-1 angiotensin II receptor (Homo sapiens), sequence (P30556 whole entry): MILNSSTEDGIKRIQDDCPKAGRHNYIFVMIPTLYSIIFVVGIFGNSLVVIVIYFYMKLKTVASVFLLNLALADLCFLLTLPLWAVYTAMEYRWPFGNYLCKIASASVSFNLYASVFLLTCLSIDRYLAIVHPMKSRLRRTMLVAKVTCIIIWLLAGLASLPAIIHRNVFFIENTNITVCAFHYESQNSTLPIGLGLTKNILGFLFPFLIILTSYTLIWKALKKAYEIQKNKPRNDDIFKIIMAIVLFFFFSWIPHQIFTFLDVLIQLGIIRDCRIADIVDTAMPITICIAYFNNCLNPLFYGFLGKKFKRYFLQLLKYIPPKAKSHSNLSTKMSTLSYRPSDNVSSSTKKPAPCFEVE
Tumor necrosis factor receptor superfamily member 1A (Homo sapiens), sequence (P19438 whole entry): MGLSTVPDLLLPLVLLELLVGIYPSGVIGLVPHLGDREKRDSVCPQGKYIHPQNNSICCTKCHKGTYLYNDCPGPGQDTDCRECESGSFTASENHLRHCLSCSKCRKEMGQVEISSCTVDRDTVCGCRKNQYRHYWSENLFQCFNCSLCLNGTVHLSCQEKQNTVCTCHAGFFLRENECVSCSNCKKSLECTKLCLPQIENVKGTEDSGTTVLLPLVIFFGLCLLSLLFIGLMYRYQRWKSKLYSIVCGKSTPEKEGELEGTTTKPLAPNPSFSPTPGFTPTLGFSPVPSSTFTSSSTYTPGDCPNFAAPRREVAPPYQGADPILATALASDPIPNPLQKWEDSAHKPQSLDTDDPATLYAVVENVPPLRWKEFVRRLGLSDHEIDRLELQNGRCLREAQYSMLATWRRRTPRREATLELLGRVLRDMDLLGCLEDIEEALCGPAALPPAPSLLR
Myeloblastin, sequence (P24158 whole entry): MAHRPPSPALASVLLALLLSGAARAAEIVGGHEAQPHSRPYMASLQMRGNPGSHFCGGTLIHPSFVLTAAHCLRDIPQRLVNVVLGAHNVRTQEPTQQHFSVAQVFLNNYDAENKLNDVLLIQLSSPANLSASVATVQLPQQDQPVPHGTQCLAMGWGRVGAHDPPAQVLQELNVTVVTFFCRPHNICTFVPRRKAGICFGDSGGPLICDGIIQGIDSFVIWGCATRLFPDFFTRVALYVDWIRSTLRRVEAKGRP
Prostacyclin receptor (Homo sapiens), sequence (P43119 whole entry): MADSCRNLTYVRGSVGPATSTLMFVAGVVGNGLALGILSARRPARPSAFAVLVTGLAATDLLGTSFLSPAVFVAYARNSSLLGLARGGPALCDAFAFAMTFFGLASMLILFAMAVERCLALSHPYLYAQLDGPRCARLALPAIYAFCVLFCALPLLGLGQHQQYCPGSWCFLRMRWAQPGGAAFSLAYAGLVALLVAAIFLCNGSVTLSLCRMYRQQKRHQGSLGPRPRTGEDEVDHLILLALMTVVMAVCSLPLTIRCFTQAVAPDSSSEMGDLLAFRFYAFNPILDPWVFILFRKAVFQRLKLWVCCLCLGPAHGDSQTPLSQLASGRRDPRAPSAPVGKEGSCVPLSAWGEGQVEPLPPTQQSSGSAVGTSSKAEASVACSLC
Prostaglandin E2 receptor EP4 subtype (Homo sapiens), sequence (P35408 whole entry): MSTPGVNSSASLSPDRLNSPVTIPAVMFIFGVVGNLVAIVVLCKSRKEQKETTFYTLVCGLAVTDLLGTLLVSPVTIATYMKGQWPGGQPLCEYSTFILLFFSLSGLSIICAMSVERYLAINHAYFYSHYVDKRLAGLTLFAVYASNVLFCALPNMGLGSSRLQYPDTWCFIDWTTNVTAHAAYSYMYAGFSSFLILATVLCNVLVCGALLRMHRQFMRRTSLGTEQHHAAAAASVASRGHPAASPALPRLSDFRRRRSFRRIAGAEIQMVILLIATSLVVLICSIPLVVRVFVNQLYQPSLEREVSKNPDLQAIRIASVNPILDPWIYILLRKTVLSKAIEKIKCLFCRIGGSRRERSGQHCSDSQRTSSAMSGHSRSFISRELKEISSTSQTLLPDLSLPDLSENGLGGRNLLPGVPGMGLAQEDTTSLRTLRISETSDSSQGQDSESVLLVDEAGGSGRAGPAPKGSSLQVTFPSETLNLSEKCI
D(1B) dopamine receptor (Homo sapiens), sequence (P21918 whole entry): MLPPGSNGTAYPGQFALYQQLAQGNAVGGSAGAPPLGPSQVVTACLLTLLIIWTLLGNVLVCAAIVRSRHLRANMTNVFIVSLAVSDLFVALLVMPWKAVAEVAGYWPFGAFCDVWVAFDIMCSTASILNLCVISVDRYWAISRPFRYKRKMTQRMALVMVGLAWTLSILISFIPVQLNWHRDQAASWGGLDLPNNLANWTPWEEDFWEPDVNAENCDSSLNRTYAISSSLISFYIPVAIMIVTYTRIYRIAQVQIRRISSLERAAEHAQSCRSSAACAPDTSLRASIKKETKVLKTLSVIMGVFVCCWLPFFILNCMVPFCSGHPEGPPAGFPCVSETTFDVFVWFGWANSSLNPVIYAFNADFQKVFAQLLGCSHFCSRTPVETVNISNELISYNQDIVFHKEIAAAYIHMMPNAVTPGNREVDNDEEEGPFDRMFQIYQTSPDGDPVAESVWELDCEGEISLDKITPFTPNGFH
Melanocortin receptor 4 (Homo sapiens), sequence (P32245 whole entry): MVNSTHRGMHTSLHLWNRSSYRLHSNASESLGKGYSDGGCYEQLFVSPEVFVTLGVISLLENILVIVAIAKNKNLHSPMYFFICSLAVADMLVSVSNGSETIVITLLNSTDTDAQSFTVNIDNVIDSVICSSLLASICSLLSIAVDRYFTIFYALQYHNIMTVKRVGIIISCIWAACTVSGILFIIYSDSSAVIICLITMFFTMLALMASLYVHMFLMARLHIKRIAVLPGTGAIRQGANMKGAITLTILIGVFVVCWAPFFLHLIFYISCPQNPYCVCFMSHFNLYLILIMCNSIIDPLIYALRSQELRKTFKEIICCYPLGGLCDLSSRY
Alpha-2A adrenergic receptor (Homo sapiens), sequence (P08913 whole entry): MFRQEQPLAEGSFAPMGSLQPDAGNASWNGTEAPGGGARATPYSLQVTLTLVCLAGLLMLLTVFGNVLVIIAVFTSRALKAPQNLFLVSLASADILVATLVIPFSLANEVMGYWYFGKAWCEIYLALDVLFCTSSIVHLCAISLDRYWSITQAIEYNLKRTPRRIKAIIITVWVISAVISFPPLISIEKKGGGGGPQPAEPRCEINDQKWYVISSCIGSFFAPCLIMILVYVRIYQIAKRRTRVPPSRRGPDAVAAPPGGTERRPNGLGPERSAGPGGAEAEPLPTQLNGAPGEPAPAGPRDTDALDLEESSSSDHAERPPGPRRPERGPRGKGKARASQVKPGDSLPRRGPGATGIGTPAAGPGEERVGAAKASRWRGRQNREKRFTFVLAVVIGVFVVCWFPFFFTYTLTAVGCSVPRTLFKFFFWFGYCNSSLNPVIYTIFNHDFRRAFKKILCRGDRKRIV
Neuromedin-K receptor (Homo sapiens), sequence (P29371 whole entry): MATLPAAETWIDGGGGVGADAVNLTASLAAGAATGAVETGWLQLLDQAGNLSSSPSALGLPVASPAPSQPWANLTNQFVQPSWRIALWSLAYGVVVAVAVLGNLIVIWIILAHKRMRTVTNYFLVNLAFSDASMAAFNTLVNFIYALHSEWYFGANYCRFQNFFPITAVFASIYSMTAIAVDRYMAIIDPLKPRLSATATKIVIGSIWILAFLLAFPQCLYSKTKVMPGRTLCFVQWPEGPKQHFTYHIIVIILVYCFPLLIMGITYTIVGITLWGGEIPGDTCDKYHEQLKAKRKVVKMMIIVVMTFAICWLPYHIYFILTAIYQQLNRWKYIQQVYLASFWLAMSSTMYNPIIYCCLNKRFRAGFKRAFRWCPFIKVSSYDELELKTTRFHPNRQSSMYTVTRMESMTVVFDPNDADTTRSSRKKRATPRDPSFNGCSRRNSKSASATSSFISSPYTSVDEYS
Alpha-1A adrenergic receptor (Homo sapiens), sequence (P35348 whole entry): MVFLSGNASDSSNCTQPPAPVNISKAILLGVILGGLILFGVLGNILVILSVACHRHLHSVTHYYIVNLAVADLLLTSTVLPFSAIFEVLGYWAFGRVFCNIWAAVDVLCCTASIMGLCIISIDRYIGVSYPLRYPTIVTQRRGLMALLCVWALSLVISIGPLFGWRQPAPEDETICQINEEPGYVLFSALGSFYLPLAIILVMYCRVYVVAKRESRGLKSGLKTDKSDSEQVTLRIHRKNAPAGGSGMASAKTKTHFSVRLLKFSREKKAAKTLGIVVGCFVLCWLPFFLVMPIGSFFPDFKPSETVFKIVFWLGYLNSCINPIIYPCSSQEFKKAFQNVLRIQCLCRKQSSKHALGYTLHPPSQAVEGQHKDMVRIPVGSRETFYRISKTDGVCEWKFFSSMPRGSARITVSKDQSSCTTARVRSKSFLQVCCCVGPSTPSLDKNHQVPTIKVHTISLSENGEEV
5-hydroxytryptamine receptor 1B (Rattus norvegicus), sequence (P28564 whole entry): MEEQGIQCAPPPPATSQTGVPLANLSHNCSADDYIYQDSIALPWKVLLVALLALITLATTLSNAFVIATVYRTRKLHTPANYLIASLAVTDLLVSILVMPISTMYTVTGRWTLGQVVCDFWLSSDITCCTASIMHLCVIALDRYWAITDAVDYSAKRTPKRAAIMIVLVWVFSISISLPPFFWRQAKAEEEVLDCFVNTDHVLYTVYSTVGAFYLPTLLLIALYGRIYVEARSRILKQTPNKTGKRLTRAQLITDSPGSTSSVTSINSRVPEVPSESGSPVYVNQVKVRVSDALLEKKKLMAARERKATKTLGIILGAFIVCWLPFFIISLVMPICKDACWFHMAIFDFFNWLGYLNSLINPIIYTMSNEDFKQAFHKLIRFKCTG

As to `CC(C)(O)CNC(=O)N1C(=O)N(c2cccc(C(F)(F)F)c2)C2=C(C(=O)CC2)[C@@H]1c1ccc(C#N)cc1`, the residual activity is 88% in data set [1]; 102% in [2]; 98% in [3]; 92% in data set [6]; 96% in [7]; 115% in data set [8]. Also, the residual activity in [9] was 101%. In addition, the activity at 10 µM is given as 104% (not active) in [4] and 96% (not active) in data set [5].
As for `CC(C)(O)CNC(=O)N1C(=O)N(c2cccc(C(F)(F)F)c2)C2=C(C(=O)CC2)[C@H]1c1ccc(C#N)cc1`, the figures for the IC50 in [10] and in data set [11] were 0.367 µM (not active) and > 10 µM (not active), respectively. In addition, the residual activity in data set [12] is 93%; in [13], 102%; in [14] (Compound concentration 10.0 uM) it was 116%; in data set [14] (Compound concentration 30.0 uM) it was 92%; in data set [15] it was 95%; in data set [16] it was 92%. For the same molecule, the residual activity in [17] was 105%; in data set [18], 102%; in data set [19] it was 95%; in data set [20], 88%; in data set [21], 104%; in [22], 123%. In addition, the residual activity in data set [23] is 111%; in data set [24] it was 115%; in data set [25], 111%; in [26], 113%; in data set [27] it was 136%; in data set [28], 94%. Moreover, the residual activity in data set [29] (Compound concentration 10.0 uM) was 100%; in data set [29] (Compound concentration 30.0 uM), 93%; in data set [30] (Compound concentration 10.0 uM), 108%; in [30] (Compound concentration 30.0 uM), 113%; in data set [31], 103%; in data set [32], 77%. In addition, the residual activity in data set [33] was 103%; in data set [34], 105%.
